Reference: patent US7312358B2, “Pharmaceutically active sulfanilide derivatives” (Laboratoires Serono SA, priority 2000, dated 2007)

Legend:
Assay type in all cases: cell-based
ratOT-R = target: T1, ratOT-R (Rattus norvegicus, UniProt P70536); experiment: Inhibition of IP3 (inositol tri-phosphate)-synthesis in HEK/EBNA-OTR cells; settings: [3H]-inositol, oxytocin 10 nM
T1 construct: expressed in transfected cells; host or cells: HEK/EBNA cells
T1 sequence (P70536 1-388): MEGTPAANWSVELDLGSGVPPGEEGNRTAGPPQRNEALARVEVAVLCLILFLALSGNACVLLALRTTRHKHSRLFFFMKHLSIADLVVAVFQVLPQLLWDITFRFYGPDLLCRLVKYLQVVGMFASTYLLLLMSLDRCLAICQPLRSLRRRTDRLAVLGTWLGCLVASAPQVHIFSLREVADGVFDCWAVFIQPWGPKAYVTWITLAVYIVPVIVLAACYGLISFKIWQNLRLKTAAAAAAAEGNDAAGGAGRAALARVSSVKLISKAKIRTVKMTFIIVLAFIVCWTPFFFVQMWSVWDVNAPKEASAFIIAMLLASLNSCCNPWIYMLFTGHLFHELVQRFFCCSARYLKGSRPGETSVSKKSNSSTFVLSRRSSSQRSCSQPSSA
Procedure: e) Functional Assay No. 2: Inhibition of IP3 (Inositol Tri-Phosphate)-Synthesis in HEK/EBNA-OTR Cells
This assay intends to show the inhibition of the OT/OT-R mediated IP3 synthesis—being necessary to cause uterine contractions—by using test compounds of formula (I).
Stimulation of the cells: IIEK/EBNA OTR(rat or human) cells were plated out into costar 12-well plates, and equilibrated for 15-24 h with [^3H]-inositol radiolabel in medium without inositol supplement, with 1% FCS (0.5 ml/well). 4 μCi/ml were used. After this, the medium containing the label was aspirated. Then was added DMEM (without FCS, inositol), 20 mM Hepes (4-(2-hydroxyethyl)-1-piperazine-ethane-sulphonic acid), 1 mg/ml BSA containing 10 mM LiCl (freshly prepared), for […] at 37° C. The agonist (i.e. oxytocin used at a concentration of 10 nM) and the antagonists (i.e. the tests compounds of formula (1) used in a concentration of 10 μM, 1 μM, 300 nM, 100 nM, 10 nM, 1 nM, 100 pM, 10 pM, 3 pM) were added for the time required (15-45 min), followed by aspiration of the medium. Due to the […] of the OT receptor, the radiolabeled inositol is phosphorylated to yield IP3, the amount of the radiolabeled IP3 may be determined through the ensuing work-up. The reaction was stopped with 1 ml STOP-solution (i.e. 0.4 M perchloric acid), and let sit for 5-10 min at Room Temperature. Then, 0.8 ml were transferred into tubes containing 0.4 ml of neutralizing solution (0.72 M KOH/0.6M KHCO3), and the tubes vortexed and kept in the cold at least for 2 h.
Separation of IP's: The samples were spun in a table top centrifuge at 3000-4000 rpm for 15 min. 1 ml of the supernatant was transferred to new tubes containing 2.5 ml H2O. Packed resin (0.8 ml) was equilibrated with 20 ml H2O, and the whole samples poured onto the chromatography columns, thus separating the mixture. To discard free inositol, two washes with 10 ml H2O were carried out.
Elution of total IP's: The elution was achieved using 3 ml 1M ammonium formate/0.1M formic acid. The eluant was collected in scintillation counting tubes, followed by addition of 7 ml of scintillation liquid. The amount of IP3 is determined by a scintillating counter.
(§1) The activities of the sulfanilide derivatives claimed in the formula I were assessed using the above described in vitro biological assay. The values refer to the capacity of the example compounds according to formula I to effectively antagonize oxytocin-induced IP3-synthesis mediated by the oxytocin receptor.

hOT-R = target: T2, hOT-R (Homo sapiens, UniProt P30559); experiment: Inhibition of oxytocin mediated Ca2+-mobilization by FLIPR (HEK cells); settings: fluo-4, OT 40 nM
T2 construct: expressed in transfected cells; host or cells: HEK (Human Embryonic Kidney) cells
T2 sequence (P30559 1-389): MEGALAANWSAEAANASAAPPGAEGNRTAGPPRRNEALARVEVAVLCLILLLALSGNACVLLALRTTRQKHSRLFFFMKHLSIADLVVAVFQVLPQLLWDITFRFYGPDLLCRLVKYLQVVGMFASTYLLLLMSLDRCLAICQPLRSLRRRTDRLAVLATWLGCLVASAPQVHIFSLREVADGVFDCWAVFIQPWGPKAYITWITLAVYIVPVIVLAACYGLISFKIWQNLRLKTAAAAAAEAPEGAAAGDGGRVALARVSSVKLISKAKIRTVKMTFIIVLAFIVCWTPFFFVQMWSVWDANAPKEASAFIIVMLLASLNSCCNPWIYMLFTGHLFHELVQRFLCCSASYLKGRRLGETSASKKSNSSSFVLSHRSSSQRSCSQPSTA
Excerpt: c) Functional Assay No. 1: Inhibition of Oxytocitn Mediated Ca^2+-Mobilization by FLIPR (Fluorescent Imaging Plate Reader)
(§2) FLIPR is a machine for fluorescence imaging using a laser that is capable of illuminating a 96-well plate and a means of simultaneously reading each well thus enabling rapid measurements on a large number of samples.
This assay intends to show the inhibition of the OT/OT-R mediated calcium mobilisation—being necessary to cause uterine contractions—by using test compounds of formula (I).
Preparing the plates: FLIPR-plates were pre-coated with PLL (Poly-L-Lysine) 10 μg/ml+0.1% gelatine to attach the HEK (Human Embryonic Kidney) cells for 30 min up to 2 days at 37° C. The cells were plated out into 96-well plates (60000 cells/well).
(§3) Labelling with fluo-4: 50 kg fluo-4 (fluorescent marker) were dissolved in 20 μl pluronic acid (20% in DMSO). The dissolved fluo-4 was then diluted in 10 ml DMEM (Dubecco's Minimal Essential Medium-F12 medium without FCS (Fetal Calf Serum). The medium was removed from the plates, followed by one wash with DNEM-F12 medium. Now, 100 μl of the DMEM-F12 medium containing fluo-4 were added and the cells incubated for 1.5-2 h (HEK-cells). The cells now contain the fluorescent marker.
(§4) Buffer: 145 mM NaCl, 5 mM KCl, 1 mM MgCl2, 10 mM Hepes, 10 mM Glucose, EGTA (Ethylene-bis oxyethylene nitrilo tetraacetic acid). Adjust to pH 7.4.
(§5) Performance of the assay: A minimum of 80 μl/well of antagonists (5×) in the above buffer (1×) were prepared (96-well plates). The antagonists were added to the well-plates at different concentrations (30 μM, 10 μM, 1 μM, 300 nM, 100 nM, 10 nM, 1 nM, 100 pM, 10 pM).
OT is added at a concentration of 40 nM.
(§6) The fluorescent marker being sensitive to the amount of Ca^2+ mobilized within the cell may be quantified by the FLIPR machine.
as §1, with “according to” for “claimed in the”, “intracellular Ca^2+-mobilization” for “IP3-synthesis”

hV1a = hV1a (Homo sapiens, UniProt P37288); experiment: Inhibition of vasopressin-mediated Ca2+-mobilization by FLIPR (CHO cells expressing hV1a); design: expressed in transfected cells; host or cells: CHO cells; settings: fluo-4, AVP 40 nM
Excerpt: d) Functional Assay No. 1: Inhibition of Vasopressin-Mediated Ca^2+-mobilization by FLIPR (Fluorescent Imaging Plate Reader)
as §2
This assay intends to show the inhibition of the AVP/V1a-R mediated calcium mobilisation—being necessary to cause uterine contractions—by using test compounds of formula (1).
Preparing the plates: FLIPR-plates were pre-coated with PLL (Poly-L-Lysine) 10 μg/ml+0.1% gelatine to attach the CHO cells (expessing hV1a) for 30 min up to 2 days at 37° C. The cells were plated out into 96-well plates (60000 cells/well).
as §3, with “μg” for “kg”, “DMEM-F12” for “DNEM-F12”, “1-1.5” for “1.5-2”, “(CHO-cells).” for “(HEK-cells).”
as §4, §5
AVP is added at a concentration of 40 nM.
as §6
as §1, with “according to” for “claimed in the”, “AVP-induced intracellular Ca^2+-mobilization” for “oxytocin-induced IP3-synthesis”, “VIa-receptor.” for “oxytocin receptor.”

Chain of hV1a (P37288 whole entry): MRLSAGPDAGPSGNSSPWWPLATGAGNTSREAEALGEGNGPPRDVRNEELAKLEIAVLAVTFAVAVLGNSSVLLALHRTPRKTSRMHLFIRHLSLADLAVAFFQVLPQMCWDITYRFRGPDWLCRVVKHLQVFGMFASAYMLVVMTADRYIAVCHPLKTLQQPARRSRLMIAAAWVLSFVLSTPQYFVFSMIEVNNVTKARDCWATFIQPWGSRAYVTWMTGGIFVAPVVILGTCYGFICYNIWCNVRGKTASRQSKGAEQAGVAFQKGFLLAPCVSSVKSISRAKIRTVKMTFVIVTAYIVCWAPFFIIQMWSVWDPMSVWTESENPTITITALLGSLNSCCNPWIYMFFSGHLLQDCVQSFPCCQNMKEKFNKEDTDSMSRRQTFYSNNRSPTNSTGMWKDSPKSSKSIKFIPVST

Compound	IC50 (ratOT-R)	IC50 (hOT-R)	IC50 (hV1a)
Cc1c(Cl)cccc1NC(=O)CN(c1ccc(Br)cc1)S(=O)(=O)c1ccccc1 [2-[Benzenesulfonyl-(4-bromo-phenyl)-amino]-N-(3-chloro-2-methyl-phenyl)-acetamide]	110 nM	353 nM	
Cc1c(Cl)cccc1NC(=O)CN(c1ccc(Cl)cc1)S(=O)(=O)c1ccccc1 [2-[Benzenesulfonyl-(4-chloro-phenyl)-amino]-N-(3-chloro-2-methyl-phenyl)-acetamide]	320 nM	443 nM	
COc1ccc(N(CC(=O)Nc2ccc(Cl)cc2C)S(=O)(=O)c2ccccc2)cc1 [2-[Benzenesulfonyl-(4-methoxy-phenyl)-amino]-N-(4-chloro-2-methyl-phenyl)-acetamide]			90 nM
COc1ccc(/C=N/NC(=O)CN(c2cccc(Br)c2)S(=O)(=O)c2ccccc2)cc1OC [N-(3-Bromo-phenyl)-N-(3,4-dimethoxy-benzylidene-hydrazinocarbonylmethyl)-benzenesulfonamide]			440 nM
COc1ccc(/C=N/NC(=O)CN(c2cccc(Cl)c2)S(=O)(=O)c2ccccc2)cc1OC [N-(3-Chloro-phenyl)-N-(3,4-dimethoxy-benzylidene-hydrazinocarbonylmethyl)-benzenesulfonamide]			550 nM
C/C(=N/NC(=O)CN(c1cccc(Cl)c1)S(=O)(=O)c1ccccc1)c1ccccc1O [N-(3-Chloro-phenyl)-N-[1-(2-hydroxy-phenyl)-ethylidene-hydrazinocarbonylmethyl]-benzenesulfonamide]			370 nM
